Source: US4448775A, “3-Carbamoyloxymethylcephem derivatives, and antibacterial drugs containing same” (Eisai Co., Ltd., priority 1981, dated 1984)
Values after ≈ are worked out from the molar mass of the structure shown.

Key:
[1] = Acute toxicity, LD50 (mouse, oral administration); details: in vivo
Text: With reference to the compounds of Example Nos. 2, 3 and 4, all their acute toxicity values [LD50 (mouse, oral administration)] amount to above 4 g/kg.

[2] = tested on: Pseudomonas aeruginosa EP-174; assay: Minimal inhibitory concentration, standard agar dilution method of the Japan Society of Chemotherapy; type: cell-based; details: EP174
Method: (§1) Minimal inhibitory concentration (MIC, μg/ml) of certain compounds obtained in the above examples was determined in accordance with the standard agar dilution method of the Japan Society of Chemotherapy.

Proteus morganii EP-14 = assay: as above; type: cell-based; details: Morganella morganii, EP14
Method: as §1

[3] = tested on: Klebsiella pneumoniae EK-6; assay: as above; type: cell-based; details: EK6
Method: as §1

Escherichia coli NIHJ = assay: as above; type: cell-based
Method: as §1

[4] = tested on: Serratia marcescens ES-75; assay: as above; type: cell-based; details: ES75
Method: as §1

Proteus vulgaris E-18 = assay: as above; type: cell-based; details: E18, Proteus vulgaris E-18, lactamase-producing bacterium
Method: as §1

[5] = tested on: Staphylococcus aureus 209-P; assay: as above; type: cell-based
Method: as §1

With `NC(=O)OCC1=C(C(=O)O)N2C(=O)[C@@H](NC(=O)[C@H](NC(=O)c3coc4cc(O)c(O)cc4c3=O)c3ccc(O)cc3)[C@H]2SC1` [Example 2, 7β-[D-2-(6,7-Dihydroxychromon-3-carboxamido)-2-(4-hydroxyphenyl)acetamido]-3-carbamoyloxymethyl-3-cephem-4-carboxylic acid] the LD50 [1] was over 4000 mg/kg, the MIC [2] was 0.4 µg/mL (≈ 0.638 µM) and the MIC (Proteus morganii EP-14) was 25 µg/mL (≈ 39.9 µM). The MIC [3] was at most 0.05 µg/mL, the MIC (Escherichia coli NIHJ) was 0.8 µg/mL (≈ 1.28 µM) and the MIC [4] was 0.8 µg/mL (≈ 1.28 µM). The MIC (Proteus vulgaris E-18) was over 100 µg/mL and the MIC [5] was 3.13 µg/mL (≈ 5 µM).

For `CO[C@@]1(NC(=O)[C@H](NC(=O)c2coc3cc(O)c(O)cc3c2=O)c2ccc(O)cc2)C(=O)N2C(C(=O)O)=C(COC(=O)NC(=O)C(Cl)(Cl)Cl)CS[C@@H]21` [Example 3, 7β-[D-2-(6,7-Dihydroxychromon-3-carboxamido)-2-(4-hydroxyphenyl)acetamido]-7α-methoxy-3-trichloroacetylcarbamoyloxymethyl-3-cephem-4-carboxylic acid], the LD50 [1] was over 4000 mg/kg, the MIC [2] was 3.13 µg/mL (≈ 3.9 µM) and the MIC (Proteus morganii EP-14) was 12.5 µg/mL (≈ 15.6 µM). It also gave an MIC [3] of at most 0.05 µg/mL, an MIC (Escherichia coli NIHJ) of 3.13 µg/mL (≈ 3.9 µM) and an MIC [4] of 1.56 µg/mL (≈ 1.95 µM). It also gave an MIC (Proteus vulgaris E-18) of 3.13 µg/mL (≈ 3.9 µM) and an MIC [5] of 6.25 µg/mL (≈ 7.79 µM).

`CO[C@@]1(NC(=O)[C@H](NC(=O)c2coc3cc(O)c(O)cc3c2=O)c2ccc(O)cc2)C(=O)N2C(C(=O)O)=C(COC(N)=O)CS[C@@H]21` [Example 4, 7β-[D-2-(6,7-Dihydroxychromon-3-carboxamido)-2-(4-hydroxyphenyl)acetamido]-7α-methoxy-3-carbamoyloxymethyl-3-cephem-4-carboxylic acid] gave an LD50 [1] of over 4000 mg/kg, an MIC [2] of 1.56 µg/mL (≈ 2.38 µM) and an MIC (Proteus morganii EP-14) of 6.25 µg/mL (≈ 9.52 µM). The MIC [3] was at most 0.05 µg/mL, the MIC (Escherichia coli NIHJ) was 1.56 µg/mL (≈ 2.38 µM) and the MIC [4] was 0.4 µg/mL (≈ 0.609 µM). It also gave an MIC (Proteus vulgaris E-18) of 0.8 µg/mL (≈ 1.22 µM) and an MIC [5] of 6.25 µg/mL (≈ 9.52 µM).
